Measurements taken from US20240140986A1, “SYNTHETIC URSOLIC ACID DERIVATIVES AND METHODS OF USE THEREOF” (REATA PHARMACEUTICALS, INC., priority 2021, published 2024).

What was measured:
[1] = system: Nrf2 / ARE-dependent luciferase in AREc32 reporter cell line; assay: AREc32 luciferase reporter activation (Nrf2 induction); format: cell-based, human; details: Homo sapiens, Arec32; Table 3; oleanolic acid derivative analogs; read-out: Avg ARE EC-2X
Protocol: Effect on Ludferase Reporter Activation. Nrf2 is a transcription factor that binds to the antioxidant response element (ARE) sequence in the promoter regions of its target genes. AREc32 reporter cell line (derived from human breast carcinoma MCF7 cells) was obtained was from CXR Bioscience Limited (Dundee, UK) and cultured in DMEM (low glucose) supplemented with 10% FBS, 1% penicillin/streptomycin, and 0.8 mg/ml Geneticin (G418). This cell line is stably transfected with a luciferase reporter gene under the transcriptional control of eight copies of the rat GSTA2 ARE sequence (5′-GTGACAAAGCA-3′) (Wang et al., 2006). Expression of Firefly luciferase from this reporter plasmid is controlled by binding of Nrf2 to these ARE sequences. Measurement of ARE-dependent luciferase activity allows quantitative assessment of Nrf2 induction. AREc32 cell line has previously been used in studies characterizing different Nrf2 activators (Dinkova-Kostova & Wang, 2011; Roubalová et al., 2016; Roubalová et al, 2017; Wu et al, 2012).
The effect of several compounds disclosed herein on luciferase reporter activation was assessed in the AREc32 reporter cell line (see Table 10 and Table 11). This cell line is derived from human breast carcinoma MCF-7 cells and is stably transfected with a luciferase reporter gene under the transcriptional control of eight copies of the antioxidant response element from the rat Gsta2 gene, an Nrf2 target gene (Frilling et al., 1990). AREc32 cells were plated in black 96-well plates in 200 μL media at 20,000 cells per well. Twenty-four hours after plating, cells were treated with vehicle (DMSO) or test compounds at concentrations ranging from 0.03 to 1000 nM for nineteen hours. Media was removed and 100 μL of 1:1 mixture of the One-Glo Luciferase assay reagent and culture medium was added to each well. After incubation for 5 min at room temperature, the luminescence signal was measured on a PHERAstar plate reader. The EC2X value was determined using Excel and GraphPad Prism software. The fold increase in luminescence signal for cells treated with each concentration of compound relative to cells treated with vehicle was determined and a dose-response curve was generated. The dose-response curve was fit using nonlinear regression analysis and used to extrapolate the EC2X value. The EC2X value is defined as the concentration of test compound required to increase the luminescence signal 2-fold above levels in vehicle-treated samples.

[2] = system: IFNγ-induced NO production in RAW 264.7 cells; assay: Nitric Oxide Suppression Assay (IFNγ-induced NO, Griess nitrite readout); format: cell-based, mouse; details: Mus musculus, RAW264.7, Table 3; oleanolic acid derivative analogs; read-out: Avg NO IC50
Protocol: Tissue Culture: RAW 264.7, a mouse macrophage cell line, was obtained from American Type Culture Collection (Manassas VA) and maintained in the log phase of growth in Roswell Park Memorial Institute Medium 1640 (RPMI 1640) supplemented with 10% heat inactivated fetal bovine serum and 1% penicillin-streptomycin. Cells were cultured and maintained in a humidified incubator at 37° C. under 5% C02. Cells were sub-cultured every 2-4 days. All cell culture supplies were obtained from Life Technologies (Grand Island, NY) and VWR (Radnor, PA).
Nitric Oxide Suppression Assay. RAW 264.7 cells were plated 1 day in advance of experimental treatments at a concentration of 30,000 cells per well onto Falcon-96 well clear bottom plates (Corning, NY) in a total volume of 200 μL per well using RPMI 1640 supplemented with 0.5% fetal bovine serum and 1% penicillin-streptomycin. The next day, cells were pretreated with compounds serially diluted from 1000×stocks. All compounds were dissolved in dimethyl sulfoxide (DMSO) usually at 10 mM stock solutions. Compounds were subsequently diluted in DMSO and RPMI 1640. Each well received a final concentration of 0.1% DMSO. Cells were pretreated for 2 hours and incubation at 37° C., followed by treatment with 20 ng/mL of interferon gamma (R&D Systems, Minneapolis, MN) per well for 24 hours. The next day, a nitrite standard was serially diluted from 100 μM to 1.6 μM in RPMI 1640. Afterwards, 50 μL of cell culture supernatant was transferred from each well into a new Falcon-96 well clear bottom plate. Nitrite was measured as surrogate for nitric oxide using Promega's Griess Detection Kit #G2930 (Madison, WI) which involves the addition of 50 μL of the provided sulfanilamide solution to each well of the transferred cell culture supernatant and standards, followed by a 10-minute incubation at room temperature. Next, 50 μL of the provided N-1-napthylethylenediamine dihydrochloride (NED) solution was added to the sulfanilamide reaction and incubated for 10 minutes at room temperature in the dark. Afterwards, air bubbles were removed using ethanol vapor and absorbance was measured using a Spectramax M2e plate reader with a wavelength set to 525 nm. Viability was assessed using WST-1 cell proliferation reagent from Roche (Basel, Switzerland). After media was removed for the Nitric Oxide suppression assay, 15 μL of WST-1 reagent was added to each well of cells. Plates were briefly mixed on an orbital shaker and the cells were incubated at 37° C. for 30-90 minutes. Absorbance was measured using a Spectramax M2e plate reader with wavelengths set to 440 nm and 700 nm.
For the ability of compounds to suppress the increase in nitric oxide release caused by interferon gamma, the absolute amount of nitrite that was produced in each well was extrapolated from the nitrite standards using a linear regression fit. All values were then normalized to the DMSO-interferon gamma treated wells and plotted as percent nitric oxide. IC50 values were calculated using Excel and/or GraphPad Prism (San Diego, CA).

CC1(C)CC[C@]2(c3nc(C4CC4)no3)CC[C@]3(C)[C@H](C(=O)C=C4[C@@]5(C)C=C(C#N)C(=O)C(C)(C)[C@@H]5CC[C@]43C)[C@@H]2C1 [CC2, reference compound]
EC (2-fold) [1]: 0.0437 µM

CCc1noc([C@]23CCC(C)(C)C[C@H]2[C@H]2C(=O)C=C4[C@@]5(C)C=C(C#N)C(=O)C(C)(C)[C@@H]5CC[C@@]4(C)[C@]2(C)CC3)n1 [CC4, reference compound]
IC50 [2]: 5.3 nM | EC (2-fold) [1]: 0.0214 µM

CN(C)Cc1noc([C@]23CCC(C)(C)C[C@H]2[C@H]2C(=O)C=C4[C@@]5(C)C=C(C#N)C(=O)C(C)(C)[C@@H]5CC[C@@]4(C)[C@]2(C)CC3)n1 [CC8, reference compound]
IC50 [2]: 3.3 nM | EC (2-fold) [1]: 0.00372 µM

CC1(C)CC[C@]2(c3nc(CO)no3)CC[C@]3(C)[C@H](C(=O)C=C4[C@@]5(C)C=C(C#N)C(=O)C(C)(C)[C@@H]5CC[C@]43C)[C@@H]2C1 [CC10, reference compound]
IC50 [2]: 2.1 nM | EC (2-fold) [1]: 0.00339 µM

CC1(C)CC[C@]2(CO)CC[C@]3(C)[C@H](C(=O)C=C4[C@@]5(C)C=C(C#N)C(=O)C(C)(C)[C@@H]5CC[C@]43C)[C@@H]2C1 [CC13, reference compound]
IC50 [2]: 0.5 nM | EC (2-fold) [1]: 0.00882 µM

CC1(C)CC[C@]2(CN3CCC3=O)CC[C@]3(C)[C@H](C(=O)C=C4[C@@]5(C)C=C(C#N)C(=O)C(C)(C)[C@@H]5CC[C@]43C)[C@@H]2C1 [CC14, reference compound]
IC50 [2]: 1.1 nM | EC (2-fold) [1]: 0.00524 µM

CC1(C)CC[C@]2(CN3CCCC3=O)CC[C@]3(C)[C@H](C(=O)C=C4[C@@]5(C)C=C(C#N)C(=O)C(C)(C)[C@@H]5CC[C@]43C)[C@@H]2C1 [CC15, reference compound]
IC50 [2]: 1.1 nM | EC (2-fold) [1]: 0.00666 µM

CC1(C)CC[C@]2(N)CC[C@]3(C)[C@H](C(=O)C=C4[C@@]5(C)C=C(C#N)C(=O)C(C)(C)[C@@H]5CC[C@]43C)[C@@H]2C1 [CC16, reference compound]
IC50 [2]: 3.5 nM | EC (2-fold) [1]: 0.0277 µM

CC1(C)CC[C@]2(CNC(=O)C3CC3)CC[C@]3(C)[C@H](C(=O)C=C4[C@@]5(C)C=C(C#N)C(=O)C(C)(C)[C@@H]5CC[C@]43C)[C@@H]2C1 [CC19, reference compound]
IC50 [2]: 0.5 nM | EC (2-fold) [1]: 0.00322 µM

CC1(C)CC[C@]2(CNC(=O)OC(C)(C)C)CC[C@]3(C)[C@H](C(=O)C=C4[C@@]5(C)C=C(C#N)C(=O)C(C)(C)[C@@H]5CC[C@]43C)[C@@H]2C1 [CC20, reference compound]
IC50 [2]: 5 nM | EC (2-fold) [1]: 0.0211 µM

CC1(C)CC[C@]2(CN)CC[C@]3(C)[C@H](C(=O)C=C4[C@@]5(C)C=C(C#N)C(=O)C(C)(C)[C@@H]5CC[C@]43C)[C@@H]2C1 [CC21, reference compound]
IC50 [2]: 3.2 nM | EC (2-fold) [1]: 0.0158 µM

CCC(=O)NC[C@]12CCC(C)(C)C[C@H]1[C@H]1C(=O)C=C3[C@@]4(C)C=C(C#N)C(=O)C(C)(C)[C@@H]4CC[C@@]3(C)[C@]1(C)CC2 [CC23, reference compound]
IC50 [2]: 0.4 nM | EC (2-fold) [1]: 0.00237 µM

[2H]C([2H])([2H])C(=O)NC[C@]12CCC(C)(C)C[C@H]1[C@H]1C(=O)C=C3[C@@]4(C)C=C(C#N)C(=O)C(C)(C)[C@@H]4CC[C@@]3(C)[C@]1(C)CC2 [CC24, reference compound]
IC50 [2]: 0.5 nM | EC (2-fold) [1]: 0.00296 µM

CNC(=O)NC[C@]12CCC(C)(C)C[C@H]1[C@H]1C(=O)C=C3[C@@]4(C)C=C(C#N)C(=O)C(C)(C)[C@@H]4CC[C@@]3(C)[C@]1(C)CC2 [CC26, reference compound]
IC50 [2]: 0.5 nM | EC (2-fold) [1]: 0.00275 µM

CC(=O)N(C)C[C@]12CCC(C)(C)C[C@H]1[C@H]1C(=O)C=C3[C@@]4(C)C=C(C#N)C(=O)C(C)(C)[C@@H]4CC[C@@]3(C)[C@]1(C)CC2 [CC35, reference compound]
IC50 [2]: 0.8 nM | EC (2-fold) [1]: 0.00681 µM

CNC(=O)N(C)C[C@]12CCC(C)(C)C[C@H]1[C@H]1C(=O)C=C3[C@@]4(C)C=C(C#N)C(=O)C(C)(C)[C@@H]4CC[C@@]3(C)[C@]1(C)CC2 [CC36, reference compound]
EC (2-fold) [1]: 0.00723 µM

CC1(C)CC[C@]2(CNCCO)CC[C@]3(C)[C@H](C(=O)C=C4[C@@]5(C)C=C(C#N)C(=O)C(C)(C)[C@@H]5CC[C@]43C)[C@@H]2C1 [CC40, reference compound]
IC50 [2]: 7.5 nM | EC (2-fold) [1]: 0.0218 µM

CC1(C)CC[C@]2(CN3CCOC3=O)CC[C@]3(C)[C@H](C(=O)C=C4[C@@]5(C)C=C(C#N)C(=O)C(C)(C)[C@@H]5CC[C@]43C)[C@@H]2C1 [CC41, reference compound]
IC50 [2]: 1.7 nM | EC (2-fold) [1]: 0.00512 µM

CC1(C)CC[C@]2(CN3CCOC3)CC[C@]3(C)[C@H](C(=O)C=C4[C@@]5(C)C=C(C#N)C(=O)C(C)(C)[C@@H]5CC[C@]43C)[C@@H]2C1 [CC42, reference compound]
IC50 [2]: 17.3 nM | EC (2-fold) [1]: 0.122 µM

CN1CCN(C[C@]23CCC(C)(C)C[C@H]2[C@H]2C(=O)C=C4[C@@]5(C)C=C(C#N)C(=O)C(C)(C)[C@@H]5CC[C@@]4(C)[C@]2(C)CC3)C1=O [CC44, reference compound]
IC50 [2]: 1.2 nM | EC (2-fold) [1]: 0.00607 µM

CC1(C)CC[C@]2(Cn3cncn3)CC[C@]3(C)[C@H](C(=O)C=C4[C@@]5(C)C=C(C#N)C(=O)C(C)(C)[C@@H]5CC[C@]43C)[C@@H]2C1 [CC47, reference compound]
IC50 [2]: 1.2 nM | EC (2-fold) [1]: 0.0107 µM

Cc1cn(C[C@]23CCC(C)(C)C[C@H]2[C@H]2C(=O)C=C4[C@@]5(C)C=C(C#N)C(=O)C(C)(C)[C@@H]5CC[C@@]4(C)[C@]2(C)CC3)nn1 [CC49, reference compound]
EC (2-fold) [1]: 0.0138 µM

CC1(C)CC[C@]2(Cn3ccnn3)CC[C@]3(C)[C@H](C(=O)C=C4[C@@]5(C)C=C(C#N)C(=O)C(C)(C)[C@@H]5CC[C@]43C)[C@@H]2C1 [CC50, reference compound]
IC50 [2]: 1.1 nM | EC (2-fold) [1]: 0.00957 µM

CC1(C)CC[C@]2(CN3CCC3)CC[C@]3(C)[C@H](C(=O)C=C4[C@@]5(C)C=C(C#N)C(=O)C(C)(C)[C@@H]5CC[C@]43C)[C@@H]2C1 [CC55, reference compound]
EC (2-fold) [1]: 0.022 µM

CC1(C)CC[C@]2(N3CCCC3=O)CC[C@]3(C)[C@H](C(=O)C=C4[C@@]5(C)C=C(C#N)C(=O)C(C)(C)[C@@H]5CC[C@]43C)[C@@H]2C1 [CC58, reference compound]
EC (2-fold) [1]: 0.0379 µM
